Test results as given in patent publication US9409905B2, “Antibacterial compounds and methods for use” (PTC THERAPEUTICS, INC., priority 2011, dated 2016).
Values after ≈ are worked out from the molar mass of the structure shown.

Tests used:
[1] = system: Escherichia coli (E. coli) BAS849; test: Antibacterial activity, microbroth dilution MIC (Table 1); assay type: cell-based; settings: microbroth dilution, super sensitive Gram-negative E. coli BAS849, read-out: MIC, BAS849
How it was run: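 In a microbroth dilution test, the minimum inhibitory concentration was defined as the lowest compound level preventing growth seen by eye, and was given in μg/mL.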

[2] = system: Staphylococcus aureus (S. aureus) 29213; test: as above; assay type: cell-based; settings: microbroth dilution, Gram-positive S. aureus 29213, read-out: MIC, 29213
How it was run: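 Lowest concentration stopping macroscopically visible growth under test conditions, by broth microdilution, defines the MIC (μg/mL).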

E. coli 25922 = test: as above; assay type: cell-based, Escherichia coli; settings: Escherichia coli; microbroth dilution; control Gram-negative E. coli 25922 strain; read-out: MIC, 25922
How it was run: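 Read-out: visual absence of growth. The lowest concentration meeting this gives the MIC, expressed in μg/mL, with microbroth dilution as the method.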

E. coli LZ3111 = test: Antibacterial activity, MIC, quinolone resistant strain (Table 2); assay type: cell-based; settings: Escherichia coli, LZ3111, read-out: MIC LZ3111
How it was run: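 Strain carries mutations conferring high-level quinolone resistance; tested by microbroth dilution, MIC recorded in μg/mL as lowest concentration preventing visible growth.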

E. coli ELZ4000 = test: Antibacterial activity, MIC, multi-drug resistant clinical isolate (Table 3); assay type: cell-based; settings: Escherichia coli, ELZ4000, read-out: MIC ELZ4000
How it was run: (§1)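 Microbroth dilution. Endpoint: absence of macroscopically visible growth. Value = MIC, μg/mL.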

E. coli ELZ4251 = test: as above; assay type: cell-based; settings: Escherichia coli
How it was run: as §1

[3] = system: Acinetobacter baumannii (A. baumannii) BAA747; test: Antibacterial activity, MIC (Table 4); assay type: cell-based; settings: A. baumannii BAA747, read-out: MIC, BAA747
How it was run: (§2)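 Values are minimum inhibitory concentrations in μg/mL from broth microdilution, meaning no macroscopically visible growth at that concentration. Resistant MXX isolates are multi-drug resistant clinical strains.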

[4] = system: Klebsiella pneumoniae (K. pneumoniae) 35657; test: Antibacterial activity, MIC (Table 4); assay type: cell-based; settings: K. pneumoniae 35657, read-out: MIC, 35657
How it was run: as §2

A. baumannii MXX2240 = test: Antibacterial activity, MIC, resistant strain (Table 4); assay type: cell-based; settings: Acinetobacter baumannii, MXX2240; resistant A. baumannii MMX2240, multi-drug resistant clinical isolate; read-out: MIC, MMX2240
How it was run: as §2

K. pneumoniae MXX1232 = test: as above; assay type: cell-based; settings: Klebsiella pneumoniae, MXX1232; resistant K. pneumoniae MMX1232, multi-drug resistant clinical isolate; read-out: MIC, MMX1232
How it was run: as §2

[5] = system: Pseudomonas aeruginosa (P. aeruginosa) 27853; test: Antibacterial activity, MIC (Table 5); assay type: cell-based; settings: P. aeruginosa 27853, read-out: MIC, 27853
How it was run: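 Compounds are serially diluted in broth and inoculated with the organism. Growth is then inspected macroscopically, and the lowest concentration showing none is taken as the MIC (μg/mL).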

[6] = system: Haemophilus influenzae (H. influenzae) 49247; test: Antibacterial activity, MIC (Table 6); assay type: cell-based
How it was run: (§3)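 Read-out: absence of macroscopically visible growth. The lowest inhibiting concentration from the microbroth dilution series is reported as MIC in μg/mL.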

[7] = system: Moraxella catarrhalis (M. catarrhalis) 25238; test: Antibacterial activity, MIC (Table 7); assay type: cell-based
From the text: The antibacterial activity from a microbroth dilution method may be presented as the minimum inhibitory concentration (MIC in μg/mL). The MIC value is the lowest concentration of drug which prevents macroscopically visible growth under test conditions.
Antibacterial activity of test compounds against the Gram-negative bacteria Haemophilus influenzae (H. influenzae) 49247 is shown in Table 6, Moraxella catarrhalis (M. catarrhalis) 25238 is shown in Table 7 and Neisseria meningitidis (N. meningitidis) 13090 is shown in Table 8.

[8] = system: Neisseria meningitidis (N. meningitidis) 13090; test: Antibacterial activity, MIC (Table 8); assay type: cell-based
How it was run: as §3

Structure (SMILES)	MIC [1]	MIC [2]	MIC (E. coli 25922)	MIC (E. coli LZ3111)	MIC (E. coli ELZ4000)	MIC (E. coli ELZ4251)	MIC [3]	MIC [4]	MIC (A. baumannii MXX2240)	MIC (K. pneumoniae MXX1232)	MIC [5]	MIC [6]	MIC [7]	MIC [8]
CCc1c(-c2ccc3c(c2)cc(CN2CCC(NC)C2)n3C)[nH]c(=O)c(C(=O)O)c1O (stereo not drawn) [Cpd 181, 5-ethyl-4-hydroxy-6-(1-methyl-2-((3-(methylamino)pyrrolidin-1-yl)methyl)-1H-indol-5-yl)-2-oxo-1,2-dihydropyridine-3-carboxylic acid]	< 1 µg/mL	12.5 to 150 µg/mL (≈ 29.4 to 353 µM)	1 to 3.5 µg/mL (≈ 2.36 to 8.24 µM)	1 to 3.5 µg/mL (≈ 2.36 to 8.24 µM)	12.5 to 150 µg/mL (≈ 29.4 to 353 µM)	12.5 to 150 µg/mL (≈ 29.4 to 353 µM)	3.5 to 12.5 µg/mL (≈ 8.24 to 29.4 µM)	1 to 3.5 µg/mL (≈ 2.36 to 8.24 µM)	12.5 to 150 µg/mL (≈ 29.4 to 353 µM)	12.5 to 150 µg/mL (≈ 29.4 to 353 µM)	12.5 to 150 µg/mL (≈ 29.4 to 353 µM)	1 to 3.5 µg/mL (≈ 2.36 to 8.24 µM)	1 to 3.5 µg/mL (≈ 2.36 to 8.24 µM)	1 to 3.5 µg/mL (≈ 2.36 to 8.24 µM)
CCc1c(-c2ccc3c(c2)cc(CN2CC4CCCNC4C2)n3C)[nH]c(=O)c(C(=O)O)c1O (stereo not drawn) [Cpd 184, 5-ethyl-4-hydroxy-6-(1-methyl-2-((tetrahydro-1H-pyrrolo[3,4-b]pyridin-6(2H,7H,7aH)-yl)methyl)-1H-indol-5-yl)-2-oxo-1,2-dihydropyridine-3-carboxylic acid]	< 1 µg/mL	12.5 to 150 µg/mL (≈ 27.7 to 333 µM)	1 to 3.5 µg/mL (≈ 2.22 to 7.77 µM)	1 to 3.5 µg/mL (≈ 2.22 to 7.77 µM)	12.5 to 150 µg/mL (≈ 27.7 to 333 µM)	3.5 to 12.5 µg/mL (≈ 7.77 to 27.7 µM)	3.5 to 12.5 µg/mL (≈ 7.77 to 27.7 µM)	1 to 3.5 µg/mL (≈ 2.22 to 7.77 µM)	12.5 to 150 µg/mL (≈ 27.7 to 333 µM)	12.5 to 150 µg/mL (≈ 27.7 to 333 µM)	12.5 to 150 µg/mL (≈ 27.7 to 333 µM)	1 to 3.5 µg/mL (≈ 2.22 to 7.77 µM)	1 to 3.5 µg/mL (≈ 2.22 to 7.77 µM)	< 1 µg/mL
CCc1c(-c2ccc3c(c2)cc(CN2CCC(C(C)(C)N)C2)n3C)[nH]c(=O)c(C(=O)O)c1O (stereo not drawn) [Cpd 185, 6-(2-((3-(2-aminopropan-2-yl)pyrrolidin-1-yl)methyl)-1-methyl-1H-indol-5-yl)-5-ethyl-4-hydroxy-2-oxo-1,2-dihydropyridine-3-carboxylic acid]	< 1 µg/mL	12.5 to 150 µg/mL (≈ 27.6 to 331 µM)	1 to 3.5 µg/mL (≈ 2.21 to 7.73 µM)	1 to 3.5 µg/mL (≈ 2.21 to 7.73 µM)	12.5 to 150 µg/mL (≈ 27.6 to 331 µM)	12.5 to 150 µg/mL (≈ 27.6 to 331 µM)	12.5 to 150 µg/mL (≈ 27.6 to 331 µM)	1 to 3.5 µg/mL (≈ 2.21 to 7.73 µM)	12.5 to 150 µg/mL (≈ 27.6 to 331 µM)	12.5 to 150 µg/mL (≈ 27.6 to 331 µM)	3.5 to 12.5 µg/mL (≈ 7.73 to 27.6 µM)	1 to 3.5 µg/mL (≈ 2.21 to 7.73 µM)	1 to 3.5 µg/mL (≈ 2.21 to 7.73 µM)	< 1 µg/mL
CCc1c(-c2ccc3c(c2)cc(CN2CCC2)n3C)[nH]c(=O)c(C(=O)O)c1O [Cpd 186, 6-(2-(azetidin-1-ylmethyl)-1-methyl-1H-indol-5-yl)-5-ethyl-4-hydroxy-2-oxo-1,2-dihydropyridine-3-carboxylic acid]	< 1 µg/mL	3.5 to 12.5 µg/mL (≈ 9.18 to 32.8 µM)	< 1 µg/mL	1 to 3.5 µg/mL (≈ 2.62 to 9.18 µM)	3.5 to 12.5 µg/mL (≈ 9.18 to 32.8 µM)	3.5 to 12.5 µg/mL (≈ 9.18 to 32.8 µM)	< 1 µg/mL	< 1 µg/mL	1 to 3.5 µg/mL (≈ 2.62 to 9.18 µM)	12.5 to 150 µg/mL (≈ 32.8 to 393 µM)	3.5 to 12.5 µg/mL (≈ 9.18 to 32.8 µM)	< 1 µg/mL	< 1 µg/mL	3.5 to 12.5 µg/mL (≈ 9.18 to 32.8 µM)
CCc1c(-c2ccc3c(c2)cc(CN2CC(O)C2)n3C)[nH]c(=O)c(C(=O)O)c1O [Cpd 187, 5-ethyl-4-hydroxy-6-(2-((3-hydroxyazetidin-1-yl)methyl)-1-methyl-1H-indol-5-yl)-2-oxo-1,2-dihydropyridine-3-carboxylic acid]	< 1 µg/mL	12.5 to 150 µg/mL (≈ 31.5 to 377 µM)	< 1 µg/mL	1 to 3.5 µg/mL (≈ 2.52 to 8.81 µM)	12.5 to 150 µg/mL (≈ 31.5 to 377 µM)	3.5 to 12.5 µg/mL (≈ 8.81 to 31.5 µM)	1 to 3.5 µg/mL (≈ 2.52 to 8.81 µM)	1 to 3.5 µg/mL (≈ 2.52 to 8.81 µM)	12.5 to 150 µg/mL (≈ 31.5 to 377 µM)	12.5 to 150 µg/mL (≈ 31.5 to 377 µM)	3.5 to 12.5 µg/mL (≈ 8.81 to 31.5 µM)	< 1 µg/mL	< 1 µg/mL	< 1 µg/mL
CCc1c(-c2ccc3c(c2)cc(CN2CC(N)C2)n3C)[nH]c(=O)c(C(=O)O)c1O [Cpd 188, 6-(2-((3-aminoazetidin-1-yl)methyl)-1-methyl-1H-indol-5-yl)-5-ethyl-4-hydroxy-2-oxo-1,2-dihydropyridine-3-carboxylic acid]	< 1 µg/mL	12.5 to 150 µg/mL (≈ 31.5 to 378 µM)	< 1 µg/mL	1 to 3.5 µg/mL (≈ 2.52 to 8.83 µM)	12.5 to 150 µg/mL (≈ 31.5 to 378 µM)	12.5 to 150 µg/mL (≈ 31.5 to 378 µM)	12.5 to 150 µg/mL (≈ 31.5 to 378 µM)	12.5 to 150 µg/mL (≈ 31.5 to 378 µM)	12.5 to 150 µg/mL (≈ 31.5 to 378 µM)	12.5 to 150 µg/mL (≈ 31.5 to 378 µM)	12.5 to 150 µg/mL (≈ 31.5 to 378 µM)	3.5 to 12.5 µg/mL (≈ 8.83 to 31.5 µM)	3.5 to 12.5 µg/mL (≈ 8.83 to 31.5 µM)	3.5 to 12.5 µg/mL (≈ 8.83 to 31.5 µM)
CCc1c(-c2ccc3c(c2)cc(CN2CC(N(C)C)C2)n3C)[nH]c(=O)c(C(=O)O)c1O [Cpd 189, 6-(2-((3-(dimethylamino)azetidin-1-yl)methyl)-1-methyl-1H-indol-5-yl)-5-ethyl-4-hydroxy-2-oxo-1,2-dihydropyridine-3-carboxylic acid]	< 1 µg/mL	3.5 to 12.5 µg/mL (≈ 8.24 to 29.4 µM)	1 to 3.5 µg/mL (≈ 2.36 to 8.24 µM)	3.5 to 12.5 µg/mL (≈ 8.24 to 29.4 µM)	12.5 to 150 µg/mL (≈ 29.4 to 353 µM)	3.5 to 12.5 µg/mL (≈ 8.24 to 29.4 µM)	1 to 3.5 µg/mL (≈ 2.36 to 8.24 µM)	1 to 3.5 µg/mL (≈ 2.36 to 8.24 µM)	12.5 to 150 µg/mL (≈ 29.4 to 353 µM)	12.5 to 150 µg/mL (≈ 29.4 to 353 µM)	12.5 to 150 µg/mL (≈ 29.4 to 353 µM)	< 1 µg/mL	< 1 µg/mL	< 1 µg/mL
CCc1c(-c2ccc3c(c2)cc(CN2CCCCC2)n3C)[nH]c(=O)c(C(=O)O)c1O [Cpd 192, 5-ethyl-4-hydroxy-6-(1-methyl-2-(piperidin-1-ylmethyl)-1H-indol-5-yl)-2-oxo-1,2-dihydropyridine-3-carboxylic acid]	< 1 µg/mL	3.5 to 12.5 µg/mL (≈ 8.55 to 30.5 µM)	< 1 µg/mL	1 to 3.5 µg/mL (≈ 2.44 to 8.55 µM)	12.5 to 150 µg/mL (≈ 30.5 to 366 µM)	3.5 to 12.5 µg/mL (≈ 8.55 to 30.5 µM)	1 to 3.5 µg/mL (≈ 2.44 to 8.55 µM)	1 to 3.5 µg/mL (≈ 2.44 to 8.55 µM)	1 to 3.5 µg/mL (≈ 2.44 to 8.55 µM)	12.5 to 150 µg/mL (≈ 30.5 to 366 µM)	12.5 to 150 µg/mL (≈ 30.5 to 366 µM)	< 1 µg/mL	< 1 µg/mL	< 1 µg/mL
CCc1c(-c2ccc3c(c2)cc(CNC(C)(C)C)n3C)[nH]c(=O)c(C(=O)O)c1O [Cpd 193, 6-(2-((tert-butylamino)methyl)-1-methyl-1H-indol-5-yl)-5-ethyl-4-hydroxy-2-oxo-1,2-dihydropyridine-3-carboxylic acid]	< 1 µg/mL	3.5 to 12.5 µg/mL (≈ 8.81 to 31.4 µM)	< 1 µg/mL	3.5 to 12.5 µg/mL (≈ 8.81 to 31.4 µM)	3.5 to 12.5 µg/mL (≈ 8.81 to 31.4 µM)	3.5 to 12.5 µg/mL (≈ 8.81 to 31.4 µM)	< 1 µg/mL	< 1 µg/mL	1 to 3.5 µg/mL (≈ 2.52 to 8.81 µM)	12.5 to 150 µg/mL (≈ 31.4 to 377 µM)	3.5 to 12.5 µg/mL (≈ 8.81 to 31.4 µM)	< 1 µg/mL	< 1 µg/mL	< 1 µg/mL
